Results taken from patent publication EP0218400A1, “Assay methods for chemotherapeutic agents” (DAMON BIOTECH, INC., priority 1985, dated 1987).

Legend:
[1] = test system: MOLT-4 lymphoma cells; test: In vivo inhibition of encapsulated Molt-4 lymphoma growth in C57BL/6 mice; design: species or system human
Procedure: (§1) In the experiments that follow, the drugs and other agents tested were administered to the host animal by injection at the various times called for in the protocol being tested. At various periods after treatment, the mice were killed by cervical dislocation. The peritoneal cavity of each mouse was washed with PBS or medium and floating microcapsules were aspirated using a large bore plastic Pasteur pipette. Microcapsules were transferred to 15 ml tubes and washed 3 to 4 times with PBS to remove host peritoneal cells. The washed microcapsules were aspirated into 1 ml serological pipettes, allowed to sediment, and the volume of packed microcapsules was determined. Microcapsules were then transferred to a glas dounce homogenizer (7 ml volume) and disrupted with 3 strokes of an A-tolerance plumger. Cells suspensions were filtered through nylon mesh to remove the disrupted membranes. The suspensions containing tumor cells were centrifuged and the pellet was resuspended in 0.25 to 0.5 ml of complete medium. After mixing equal volumes of cell suspension and trypan blue, viable cell counts were determined using a hemocytometer.
(§2) The number of tumor cells per 1 ml of packed microcapsules was determined as follows: a = ? where b = total number of tumor cells in the suspension, and c = total volume of microcapsules used for the preparation of this suspension.
(§3) By comparing the number of tumor cells in 1 ml of microcapsules derived from non-treated and drug-treated mice, the percent inhibition of tumor cell growth was calculated: [formula] where ac = number of tumor cells from the non-treated control microcapsules, and ae = number of tumor cells from the drug treated microcapsules.
MOLT-4 lymphoma cells were also used in an in vivo assay. As before, the MOLT-4 cells were encapsulated and transplanted i.p. into C57BL/6 mice. On day 1 following the transplantation of the encapsulated cells, the mice were treated i.v. intravenous (i.v.) with BCNU, adriamycin or cyclophosphamide (CY). This approach allowed the testing of cyclophosphamide (CY) which is inefficient in vitro because it must be metabolized to obtain an active cytotoxic derivative. Ten days after transplantation, the encapsulated cells were retrieved and the tumor cells contained therein were counted. […]

[2] = test system: human lung carcinoma A549 cells; test: In vivo susceptibility of encapsulated A549 cells; conditions: i.v. days 2, 5, 9; for No. of tumor cells per 1 ml of capsules / percent Inhibition: Adriamycin 6, BCNU 20, CY 100 mg/kg
Procedure: as §1, §2, §3
The sensitivity of human lung carcinoma A549 cells to the drugs was assessed 12 and 14 days after transplantation of encapsulated tumor cells. The treatments were applied i.v. 2, 5 and 9 days after microcapsule transplantation (Table 5).

[3] = i.v. on day 1, Adriamycin 10 mg/kg, BCNU 100 mg/kg, CY 200 mg/kg, capsules retrieved ten days after transplantation

For `COc1cccc2c1C(=O)c1c(O)c3c(c(O)c1C2=O)C[C@@](O)(C(=O)CO)C[C@@H]3O[C@H]1C[C@H](N)[C@H](O)[C@H](C)O1` [Adriamycin], which inhibition at 10 mg/kg ([1]; Mus musculus, MOLT-4, iv, i.v. on day 1, Adriamycin 10 mg/kg, BCNU 100 mg/kg, CY 200 mg/kg, capsules retrieved ten days after transplantation) is on record?
The inhibition at 10 mg/kg was 91.3%.

And the “reduction of the number of viable tumor cells in the capsules (in words)” value ([1]; i.v. on day 1, ten days after transplantation)?
The value was “more effective than BCNU”.

What about the “No. of cells per capsule” value [1, 3] of the same molecule?
The value was 237.

What about the “Total No. of tumor cells” value [1, 3] of the same molecule?
Its value is 8 x 10^4.

What about the “No. of tumor cells per 1 ml of capsules” value ([2]; 12 days after transplantation) of the same molecule?
Its value is 9.0 x 10^5.

What about the “percent Inhibition” value ([2]; 12 days after transplantation) of the same molecule?
The value was 85%.

What about the “No. of tumor cells per 1 ml of capsules” value ([2]; 14 days after transplantation) of the same molecule?
The value was 13.5 x 10^5.

What about the “percent Inhibition” value ([2]; 14 days after transplantation) of the same molecule?
The value was 84%.

What about the “reduction of the numbers of tumor cells (in words)” value [2] of the same molecule?
Its value is “more efficient in this respect than CY”.
